Details of data set [1]: species or system rats. The following applies: rat, in vivo. The procedure: Studies of the disposition of compound 11 ((3′R,4′R)-3′,4′-di-O-(S)-(−)-camphanoyl-3-hydroxymethyl-4-methyl-(+)-cis-khellactone) and 4-methyl-DCK ((3′R,4′R)-3′,4′-di-O-(S)-(−)-camphanoyl-4-methyl-(+)-cis-khellactone) were conducted in rats. 4-Methyl-DCK can be prepared, for example, as described in U.S. Pat. No. 5,847,165. The rats ordered from Charles River with jugular catheters in place were allowed to acclimate for one to two days prior to use. The venous catheter was kept patent by flushing daily with heparin solution. […]
Reversed phase HPLC was conducted with an ODS, 5 μM particle size, 150×10 mm Axxiom column (Thompson Instruments, Chantilly, Va.) using 55% acetonitrile and water as the mobile phase with 25 mM acetic acid buffer at 1.5 mL/min. Detection was carried out at 320 nm (λmax) for UV detection and at an excitation wavelength of 320 nm. The equipment for HPLC was an HP 1100 system with UV and quantitative analysis was performed using the HP Chemstation. […]
Weighed amounts (approximately 7-8 mg) of 4-methyl-DCK were suspended in 1 mL of 10% Tween 80/water, then administered to two rats (250-300 g) by oral gavage using a feeding needle to provide an oral dose of 25 mg/kg. Blood samples (0.3 mL) were collected at 0, 0.25, 0.50, 0.75, 1.0, 1.5, 2, 4, 8, and 23 hours following the oral dosing. Approximately 0.01 mL of heparin was added to each sample. The samples were then centrifuged to collect 0.10 mL of plasma. The plasma samples were frozen at −20° C. prior to analysis. The samples were thawed and analyzed by reversed phase HPLC within two weeks of collection.
Reversed phase HPLC was conducted with an ODS, 5 μM particle size, 150×10 mm Axxiom column (Thompson Instruments, Chantilly, Va.) using 60% acetonitrile/0.1% TFA in water as the mobile phase. Detection was carried out at 320 nm (λmax) for UV detection. The equipment for HPLC was an HP 1050 quaternary HPLC pump, an HP 1050 UV detector at 320 nm and range 0.2, an HP 3390 integrator, and a BioRad Model AS-100 autosampler.
Standard curves were prepared by addition of appropriate diluted stock solutions of 4-methyl-DCK to 0.10 mL plasma (pooled human plasma) to provide concentration of zero, and 0.05 to 20 μg/mL in a 13×100 mm culture tube. Internal standard solution (0.025 mL of 0.01 mg/mL DCK) was then added to each tube. The spiked samples were briefly vortexes, then allowed to equilibrate for at least 10 minutes prior to further workup. […]
The HPLC assay was partially validated to have a range of 0.125 to 20 μg/mL in plasma, with a detection limit of 50 ng/mL. Recovery from plasma was determined by spiking 4-methyl-DCK into plasma the same way as was done in the preparation of the standard curve, and preparing samples as described above, but adding DCK as an external standard just prior to injection. […]

In another data set the test system is HIV-1 (IIIB isolate). The experiment in a line: Anti-HIV activity in H9 lymphocytes (p24 antigen ELISA). The data set is classed as cell-based. The following applies: H-9 lymphocytes; for Anti-HIV Activity EC50: HIV-1 IIIB, p24 ELISA, day 5, average of at least two experiments; for Therapeutic Index (TI = IC50/EC50): ratio of IC50 to EC50. As for the experimental part: (§1) The biological evaluation of HIV-1 inhibition was carried out according to established protocols, (Kashiwada, Y., et al., J. Med. Chem. 39:1016-1017 (1996); Hashimoto, F., et al., Bioorg. & Med. Chem. 5:2133-2143 (1997)). The T cell line, H9, was maintained in continuous culture log-phase growth in complete medium (RPMI 1640 with 10% fetal calf serum supplemented with L-glutamine at 5% CO2 and 37° C.). Test samples were first dissolved in dimethyl sulfoxide at a concentration of 10 mg/ml to generate master stocks with dilutions made into tissue culture media to generate working stocks. The following drug concentrations were used routinely for screening: 50, 5, and 0.5 μg/mL. For agents found to be active, additional dilutions were prepared for subsequent testing so that an accurate EC50 value (defined below) could be determined. As the test samples were being prepared, an aliquot of the H9 cell line was infected with HIV-1 (IIIB isolate) while a second aliquot was mock-infected with complete medium. […] An amount of virus equal to approximately 6.25×10^4 TCID50 was added to the first aliquot of 3.5×10^6H9 cells. The second aliquot received tissue culture medium only, and these mock-infected cells were used for toxicity determinations (IC50 defined below). After a 4 h incubation at 37° C. and 5% CO2, both cell populations were washed three times with fresh medium and then added to the appropriate wells of a 96-well plate containing various concentrations of the test drug or tissue culture medium (positive infected control/negative drug control). In addition, AZT was assayed during each experiment as a positive drug control. The plates were incubated at 37° C. and 5% CO2 for 5 days. Cell-free culture supernatants were collected on Day 5 for use in a p24 antigen-capture ELISA assay to determine virus replication. p24 is the core protein of HIV and therefore is an indirect measure of the amount of virus present in the culture supernatants. Toxicity was determined using a viable dye method (XTT) on mock-infected H9 cells that were treated with test sample, AZT or no drug. If a test sample suppressed viral replication and was toxic to less than 50% of the cells, its effects were reported in the following terms: IC50, the concentration of test sample which was toxic to 50% of the mock-infected H9 cells; EC50, the concentration of the test sample which was able to suppress HIV replication by 50%; and Therapeutic Index (TI), the ratio of IC50 to EC50.
(§2) Compounds of the present invention were assayed for anti-HIV activity according to the following assay procedures. The T cell line, H9, and the promonocytic cell line, U937, were maintained separately in continuous culture with complete medium (RPMI 1640 with 10% fetal calf serum) at 5% CO2 and 37° C. The cell lines were used in experiments only when in the logarithmic phase of growth, whereas uninfected peripheral blood mononuclear cells (PBMCs) were first stimulated with PHA (1 μg/mL) for three days. All cell targets were incubated with HIV-1 (IIIB isolate, 1×10^6 TCID50/mL) for one hour at 37° C. and 5% CO2. The cell lines and PBMCs were washed thoroughly to remove unadsorbed virions and resuspended at 4×10^5 cells/mL in complete medium or complete medium with 10% v/v interleukin 2 (IL-2), respectively. […] aliquots were placed into wells of 96-well tissue culture plates containing an equal volume of test compounds (diluted in the appropriate culture medium). The toxicity of each compound was assessed by determining the viability of compound-exposed uninfected cells after five days at 37° C. and 5% CO2. A p24 antigen ELISA assay was used to determine the level of virus released in the medium of the HIV-infected cultures. The p24 antigen assay used a HIV-1 anti-p24 specific monoclonal antibody as the capture antibody coated onto 96-well plates. […]

In the next data set the test system is mock-infected H9 cells. The experiment in a line: Cytotoxicity in mock-infected (uninfected) H9 cells. The data set is classed as cell-based. As for the experimental part: as §1, §2
In data set [2] the test system is HIV-1 replication in H9 lymphocyte cells. The conditions noted are these: background art, cited from earlier work; for EC50: read-out: EC50 against HIV-1 replication.

On to `Cc1cc(=O)oc2c3c(ccc12)OC(C)(C)[C@H](OC(=O)[C@@]12CCC(C)(C(=O)O1)C2(C)C)[C@@H]3OC(=O)[C@@]12CCC(C)(C(=O)O1)C2(C)C` (relative stereo) [Compound 4-methyl-DCK, (3′R,4′R)-3′,4′-di-O-(S)-(−)-camphanoyl-4-methyl-(+)-cis-khellactone, reference compound], for which the “concentration in plasma after oral administration” value in data set [1] (po, 25 mg/kg) was “less than 50 ng/mL”.

For the compound `Cc1c(CO)c(=O)oc2c3c(ccc12)OC(C)(C)[C@H](OC(=O)[C@@]12CCC(C)(C(=O)O1)C2(C)C)[C@@H]3OC(=O)[C@@]12CCC(C)(C(=O)O1)C2(C)C` (relative stereo) [Compound 11, (3′R,4′R)-3′,4′-Di-O-(S)-(−)-camphanoyl-3-hydroxymethyl-4-methyl-(+)-cis-khellactone], in the data set on HIV-1 (IIIB isolate), the “Anti-HIV Activity EC50” value was found to be 0.0161 µg/mL and the “Therapeutic Index (TI = IC50/EC50)” value was 1,320. In the data set with mock-infected H9 cells, the “Cytotoxicity IC50” value is 21.2 µg/mL. Moreover, the “oral bioavailability (Foral)” value in data set [1] turned out to be 15%. Moreover, the clearance (usually the rate of elimination divided by the concentration) in data set [1] (iv) was 83 mL/min/kg. Moreover, the “time at which Cmax occurs” value in data set [1] (po) lay within 120 to 240 min.

With `CCN(CC)Cc1cc2ccc3c(c2oc1=O)[C@@H](OC(=O)[C@@]12CC[C@@](C)(C(=O)O1)C2(C)C)[C@@H](OC(=O)[C@@]12CC[C@@](C)(C(=O)O1)C2(C)C)C(C)(C)O3` (relative stereo) [Compound 16, (3′R,4′R)-3′,4′-Di-O-(S)-(−)-camphanoyl-3-diethylaminomethyl-(+)-cis-khellactone], in the data set with HIV-1 (IIIB isolate), the “Anti-HIV Activity EC50” value was found to be 0.69 µg/mL and the “Therapeutic Index (TI = IC50/EC50)” value came to 62. Also, the “Cytotoxicity IC50” value with mock-infected H9 cells stood at 43.01 µg/mL.

Consider `CC1(C)Oc2ccc3ccc(=O)oc3c2[C@@H](OC(=O)[C@@]23CCC(C)(C(=O)O2)C3(C)C)[C@H]1OC(=O)[C@@]12CCC(C)(C(=O)O1)C2(C)C` (relative stereo) [DCK, 3′,4′-di-O-(S)-(−)-camphanoyl-(3′R,4′R)-(+)-cis-khellactone], for which, in data set [2], the half-maximal effective concentration (EC50) (commonly the concentration giving half of the maximal effect) was 0.256 nM and the “therapeutic index (TI)” value was 136,719.

Take `Cc1cn([C@H]2C[C@H](N=[N+]=[N-])[C@@H](CO)O2)c(=O)[nH]c1=O` [AZT, reference compound]: in the data set on HIV-1 (IIIB isolate), the “Anti-HIV Activity EC50” value stood at 0.045 µg/mL and the “Therapeutic Index (TI = IC50/EC50)” value is on record as 41,667. In addition, the “Cytotoxicity IC50” value with mock-infected H9 cells was found to be 1875 µg/mL.

As to `CC(=O)O[C@@H]1[C@H](OC(=O)CC(C)C)c2c(ccc3ccc(=O)oc23)OC1(C)C` [suksdorfin, (3′R,4′R)-3′-acetoxy-4′-isovaleryloxy-(+)-cis-khellactone], in data set [2], the EC50 is 1300 nM and the “therapeutic index (TI)” value is reported as 140.
